Peptide text beside a SMILES is read from it. * marks the point of attachment. Cbz = O=C(OCc1ccccc1)*; CH2F = FC*
Key:
[1] = test system: cells expressing RIPK1-FRB/RIPK3-FKBP; assay: Heterodimerizer-induced RIPK1/RIPK3 necrosis, annexin V-FITC; assay type: cell-based; conditions: data not shown
Description: (§1) FIG. 6 provides a schematic for inducible RIPK-necrosis. Two systems for inducible RIPK-necrosis. […] Cell death in cells expressing RIPK1-FRB/RIPK3-FKBP and treated with heterodimerizer, and death was detected with annexin V-FITC. Death was inhibited by necrostatin-1 (not shown) (FIG. 6B). Cells expressing RIPK3ΔC-FKBPx2, treated with homodimerizer (1-100 nM); death was detected at 3 hrs by PI uptake. No effect of zVAD-fmk or necrostatin was observed (FIG. 6B).
(§2) An inducible dimer system has been employed to trigger homodimerization of caspase-8 in cells (27). The data provided herein support methods to induce RIPK-dependent necrosis by related approaches (FIG. 6A). Heterodimerization of RIPK1 and RIPK3 results in necrosis (see FIG. 6B) which is enhanced by inhibition of caspases and blocked by inhibition of RIPK1 (with nec1, data not shown). In contrast, truncated RIPK3 (lacking the RHIM domain for interaction with RIPK1) can only be oligomerized when FKBP domains (e.g., for example, two domains) that allow multiple monomers to be brought together by the dimerizing agent. Addition of the homodimerization agent to cells expressing this construct induces extremely rapid necrosis that that depends on the kinase activity of RIPK3, but is not affected by inhibition of caspases or nec1 treatment (FIG. 6C).

[2] = test system: Cells expressing RIPK3ΔC-FKBPx2; assay: Homodimerizer-induced truncated RIPK3 necrosis, PI uptake; assay type: cell-based; conditions: homodimerizer 1-100 nM, PI uptake at 3 hrs
Description: as §1, §2

[3] = test system: RIPK3 complexes; assay: DSS crosslinking of necrosome complexes resolved by western blotting; assay type: cell-based, murine; conditions: 30 nM AP1; zVAD 50 μM, Nec1 30 μM
Description: A confluent monolayer of the indicated cells was incubated with the appropriate treatment for 30 minutes at 37 degrees. Cells were lysed in a modified, Tris-free NP40 buffer (30 mM HEPES pH 7.4, 150 mM NaCl, and 1% NP40) without protease inhibitors. Protein lysate was quantified according to standard BCA assay (Pierce) and fifty micrograms of each sample was treated with 0.1 mM DSS crosslinking agent (Thermo Scientific, #21658) for 30 minutes at room temperature; the reaction was quenched by the addition of Tris-HCl pH 7.2 to a final concentration of 50 mM for 15 minutes. Crosslinked samples were analyzed by Western blot as described above, using the anti-2A primary antibody for detection.

[4] = test system: NIH-3T3 cells stably expressing RIPK3-1xFv; assay: AP1-induced RIPK3 dimerization cell death, IncuCyte imaging; assay type: cell-based, murine; conditions: for effect on AP1 (RIPK3 dimerization)-induced cell death: 30 nM AP1, zVAD 50 μM, Nec1 30 μM, TNFR-Fc 200 ng/ml, siRNA 72 h before
Description: Fv domains rapidly dimerize in response to AP1 treatment that facilitated an investigation of the protein-protein interactions involved in RIPK3 activation and necroptosis (27a). For example, an Fv domain was appended to a C-terminus of RIPK3, that is adjacent to the RHIM domain, in an effort to mimic in situ RHIM-dependent interactions that define RIPK3 activation. RIPK3-1xFv was expressed in NIH-3T3 cells, a cell line that lacks endogenous RIPK3 expression and is therefore unresponsive to TNF-induced necroptosis. See, FIGS. 13A and 13B. Cell death responses of NIH-3T3 cells were quantified by construct expression over time using the IncuCyte imaging system, which allows precise quantification of cell death with high temporal resolution. For example, representative images were acquired from an IncuCyte Imager (data not shown). These images were NIH-3T3 cells stably expressing RIPK3-1xFV, treated with 10 nM AP1 (see FIG. 1B for a quantified graphical representation of this cell death). One set of images show a field of these cells undergoing RIPK3-dependent cell death; the media contains the cell impermeable DNA binding dye Sytox Green, which marks cells that have lost membrane integrity in green. Another set of images depicts the same image set, following analysis by the IncuCyte software package. This software counts each green (dead) cell in each image; counted cells are surrounded by purple halos. Each trace shown in this manuscript depicts data averaged from at least 3 independently treated wells of cells, each of which is imaged in at least 4 separate fields. Each experiment shown is representative of at least 3 separate replicates. All experiments on stably transduced cells is representative of at least three separate replicates performed on each of at least two distinct, independently-derived stable lines.
In the examples below, the following compounds were used: Recombinant murine TNF (Peprotech 315-01A) was used at 1 ng/ml unless otherwise specified; AP1 (Now commercialized by Clontech as “B/B Homodimerizer,” catalog #635059) was dissolved in ethanol to a concentration of 100 μM, then diluted in culture media to a final concentration of 30 nM unless otherwise indicated. zVAD (SM 13 Biochemicals SMFMK001) was dissolved in DMSO to a concentration of 50 mM, then diluted to 50 μM in culture media; Necrostatin-1(Sigma N9037-10MG) was dissolved in DMSO to a concentration of 30 mM, then diluted to 30 μM in culture media; TNFR-Fc (Fisher 430-RI-050) was used at a final concentration of 200 ng/ml; Shield drug was a kind gift of Dr. Tom Wandless and was used at a final concentration of 1 μM. SiGenome SMARTpool siRNAs were purchased from Dharmacon/Fisher. Pools targeting murine MLKL(M-061420-01), murine RIPK1 (M-040150-01), and murine caspase-8 (M-043044-01), as well as a non-targeting “scramble” pool(D-001206-14), were used. Two microliters of a 50 μM stock of these siRNAs were delivered to cells in 6-well format using Lipofectamine siRNA-Max reagent (Life Technologies 13778150) according to the manufacturer's instructions. Forty-eight hours later, these cells were re-plated into 24-well format for cell death assays, or harvested for western blot analysis of knockdowns.
These constructs were transduced into NIH-3T3 cells using standard protocols for helper-dependent retroviral transduction. Transduced cells were selected for 5 days in 1 μg/ml puromycin, then grown to confluence and sorted twice for homogenous GFP expression. […]

| SMILES | effect on heterodimerizer-induced death [1] | effect on heterodimerizer-induced death ([1]; listed as nec1) | effect on homodimerizer-induced death [2] | effect on homodimerizer-induced death ([2]; listed as nec1) | effect of inhibitor on RIPK3 complexes following RIPK3-1xFv dimerization [3] | effect on AP1 (RIPK3 dimerization)-induced cell death [4] | effect on AP1 (RIPK3 dimerization)-induced cell death ([4]; listed as Nec1) | inhibitory effects of Nec1 on RIPK3 oligomerization upon knockdown of RIPK1 ([4]; RIPK1 siRNA, 30 nM AP1, 30 μM Nec1) |
| --- | --- | --- | --- | --- | --- | --- | --- | --- |
| CN1C(=O)C(Cc2c[nH]c3ccccc23)NC1=S (centres unmarked) [necrostatin-1, Necrostatin-1] | inhibited | blocked | No effect | not affected | diminished the appearance of these complexes | suppressed | blocked | abrogated |
| COC(=O)C[C@H](NC(=O)[C@H](C)NC(=O)[C@@H](NC(=O)OCc1ccccc1)C(C)C)C(=O)CF [zVAD] (Cbz-Val-Ala-Asp(OMe)-CH2F) |  |  | No effect |  | increased shift of RIPK3 into higher molecular weight complexes | notably increased the rate and magnitude of necroptosis |  |  |

From patent publication US20160160189A1, “Truncated Constructs of RIPK3 and Related Uses” (ST. JUDE CHILDREN'S RESEARCH HOSPITAL, priority 2013, published 2016)
